In patent US10370381B2, “Inhibitors of bruton'S tyrosine kinase” (GILEAD SCIENCES, INC., priority 2017, dated 2019):
Structures can show the parent of a compound that is named as a salt.

Test: Dynamic Vapor Sorption (DVS), hygroscopicity of solids
Assay type: physicochemical
Conditions: from about 10% to about 90% RH at about 25° C.
Method: Dynamic Vapor Sorption (DVS):
DVS data, which was used to determine the hygroscopicity of solids, were collected on a TA Instruments Q5000SA system. The temperature-controlled chamber was set at 25° C. and dry nitrogen was introduced at a flow rate of 10 mL/min. Approximately 1 to 5 mg sample was placed in a semispherical metal-coated quartz crucible or a disposable aluminum pan. A stepwise isotherm experiment at 25° C. was conducted by controlling the relative humidity (RH) in the chamber from 10% to 90%, then down to 10%, at 10% increments to accomplish a full sorption/desorption cycle.

| dynamic vapor sorption isotherm water uptake | SMILES |
| --- | --- |
| about 22% | CC#CC(=O)N1CC[C@@H](n2c(=O)n(-c3ccc(Oc4ccccc4)cc3)c3c(N)ncnc32)C1 [Compound (I) edisylate, 6-amino-9-[(3R)-1-(2-butynoyl)-3-pyrrolidinyl]-7-(4-phenoxyphenyl)-7,9-dihydro-8H-purin-8-one] |
| about 0.1% | CC#CC(=O)N1CC[C@@H](n2c(=O)n(-c3ccc(Oc4ccccc4)cc3)c3c(N)ncnc32)C1 [Compound (I) fumarate, 6-amino-9-[(3R)-1-(2-butynoyl)-3-pyrrolidinyl]-7-(4-phenoxyphenyl)-7,9-dihydro-8H-purin-8-one] |
| about 3% | CC#CC(=O)N1CC[C@@H](n2c(=O)n(-c3ccc(Oc4ccccc4)cc3)c3c(N)ncnc32)C1 [Compound (I) hemiedisylate, 6-amino-9-[(3R)-1-(2-butynoyl)-3-pyrrolidinyl]-7-(4-phenoxyphenyl)-7,9-dihydro-8H-purin-8-one] |
| about 6.5% | CC#CC(=O)N1CC[C@@H](n2c(=O)n(-c3ccc(Oc4ccccc4)cc3)c3c(N)ncnc32)C1 [Compound (I) heminapadisylate, 6-amino-9-[(3R)-1-(2-butynoyl)-3-pyrrolidinyl]-7-(4-phenoxyphenyl)-7,9-dihydro-8H-purin-8-one] |
| about 1.2% | CC#CC(=O)N1CC[C@@H](n2c(=O)n(-c3ccc(Oc4ccccc4)cc3)c3c(N)ncnc32)C1 [Compound (I) hemisulfate, 6-amino-9-[(3R)-1-(2-butynoyl)-3-pyrrolidinyl]-7-(4-phenoxyphenyl)-7,9-dihydro-8H-purin-8-one] |
| about 0.5% | CC#CC(=O)N1CC[C@@H](n2c(=O)n(-c3ccc(Oc4ccccc4)cc3)c3c(N)ncnc32)C1 [Compound (I) oxalate, 6-amino-9-[(3R)-1-(2-butynoyl)-3-pyrrolidinyl]-7-(4-phenoxyphenyl)-7,9-dihydro-8H-purin-8-one] |
| about 0.2% | CC#CC(=O)N1CC[C@@H](n2c(=O)n(-c3ccc(Oc4ccccc4)cc3)c3c(N)ncnc32)C1 [Compound (I) succinate, 6-amino-9-[(3R)-1-(2-butynoyl)-3-pyrrolidinyl]-7-(4-phenoxyphenyl)-7,9-dihydro-8H-purin-8-one] |
